Measurements taken from patent US12611404B2, “Aza-aryl 1H-pyrazol-1-yl benzene sulfonamides” (ChemoCentryx, Inc., priority 2012, dated 2026).

What follows are compounds tested against T1, CCR(9) (Homo sapiens, UniProt P51686) (assay: calcium mobilization assay (FLIPR, MOLT-4 cells, hTECK)). Details: read-out: CCR(9) Ca^2+.
T1 construct: CCR(9)-expressing cells such as T cell line MOLT-4 cells; host or cells: MOLT-4 cells
T1 sequence (P51686 1-369): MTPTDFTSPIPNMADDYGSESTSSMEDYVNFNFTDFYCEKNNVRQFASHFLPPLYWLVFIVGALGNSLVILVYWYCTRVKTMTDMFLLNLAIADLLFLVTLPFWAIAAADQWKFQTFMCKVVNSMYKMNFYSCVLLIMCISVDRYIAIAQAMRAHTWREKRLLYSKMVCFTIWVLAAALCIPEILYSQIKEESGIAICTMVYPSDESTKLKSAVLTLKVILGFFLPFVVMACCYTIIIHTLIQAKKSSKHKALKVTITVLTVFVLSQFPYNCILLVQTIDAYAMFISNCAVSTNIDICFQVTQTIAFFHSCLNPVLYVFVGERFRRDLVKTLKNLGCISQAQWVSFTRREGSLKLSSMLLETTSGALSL
Assay type: cell-based
Description: In calcium signaling assays used to determine the ability of a compound to interfere with binding between a chemokine receptor and a known chemokine ligand, chemokine receptor-expressing cells (CCR(9)-expressing cells such as T cell line MOLT-4 cells) are first incubated with a compound of interest, such as a potential chemokine antagonist, at increasing concentrations. The cell number can be from 10^5 to 5×10^6 cells per well in a 96-well microtiter plate. The concentration of the compound being tested may range from 0 to 100 μM. After a period of incubation (which can range from 5 to 60 minutes), the treated cells are placed in a Fluorometric Imaging Plate Reader (FLIPR®) (available from Molecular Devices Corp., Sunnyvale, CA) according to the manufacturer's instruction. The FLIPR® system is well known to those skilled in the art as a standard method of performing assays. The cells are then stimulated with an appropriate amount of the chemokine ligand (TECK for CCR(9)) at 5-100 nM final concentration, and the signal of intracellular calcium increase (also called calcium flux) is recorded. The efficacy of a compound as an inhibitor of binding between the […] and the ligand can be calculated as an IC50 (the concentration needed to cause 50% inhibition in signaling) or IC90 (at 90% inhibition). […]
A cytoplasmic calcium mobilization assay was used to determine the efficacy of potential receptor antagonists at blocking the signals mediated through chemokine receptors, such as CCR(9). This assay was routinely performed using the Fluorescent Imaging Plate Reader (FLIPR, Molecular Devices). […] The chemokine agonist (i.e., hTECK), prepared in HBSS at a 5× concentration of the previously determined EC^50 concentration, was added to each well and resulting changes in the fluorescent intensity, indicative of chemokine receptor-mediated signaling, were recorded on the FLIPR.

Row | Structure (SMILES) | IC50
1 | Cc1cc(NS(=O)(=O)c2ccc(C(C)(C)C)cc2Cl)n(-c2cccc3ncccc23)n1 | < 100 nM
2 | Cc1cc(NS(=O)(=O)c2ccc(C(C)(C)C)cc2)n(-c2ccc3cccnc3c2)n1 | < 100 nM
3 | CCc1cc(NS(=O)(=O)c2ccc(C(C)(C)C)cc2)n(-c2cccc3ncccc23)n1 | < 100 nM
